Laboratory results as given in ChEMBL document CHEMBL3885881, “DrugMatrix”.

Organism: Rattus norvegicus
Assay: DrugMatrix - Regimen: Daily Repeat
Type: toxicity, organism-based, Sprague-Dawley
Parameters: regimen Daily Repeat, gender Male, age 6-8 weeks
Details: in vivo, po, route oral GAVAGE, vehicle .5 % CMC; for ABSOLUTE BASOPHIL / ABSOLUTE EOSINOPHIL / ABSOLUTE LYMPHOCYTE / ABSOLUTE MONOCYTE / ABSOLUTE SEGMENTED NEUTROPHIL / BASOPHIL / EOSINOPHIL / HEMATOCRIT / HEMOGLOBIN / LEUKOCYTE COUNT / LYMPHOCYTE / MEAN CORPUSCULAR HEMOGLOBIN / MEAN CORPUSCULAR HEMOGLOBIN CONCENTRATION / MEAN CORPUSCULAR VOLUME / MONOCYTE / NEUTROPHIL / NUCLEATED RED BLOOD CELLS / PLATELET COUNT: tissue Blood; for ALANINE AMINOTRANSFERASE / ALBUMIN / ALKALINE PHOSPHATASE / ASPARTATE AMINOTRANSFERASE / BLOOD UREA NITROGEN / CARBON DIOXIDE / CHLORIDE / CHOLESTEROL / CREATINE PHOSPHOKINASE / CREATININE / GLUCOSE / LACTATE DEHYDROGENASE / LIPASE / PHOSPHORUS / POTASSIUM / SODIUM / TOTAL BILIRUBIN / TOTAL PROTEIN / URIC ACID: tissue Plasma
[1] = 150 mg/kg, 72 h, dose level Low, time 3 day
[2] = 150 mg/kg, 120 h, dose level Low, time 5 day
[3] = 1500 mg/kg, 72 h, dose level High, time 3 day
[4] = 1500 mg/kg, 120 h, dose level High, time 5 day

CC(C)(C)NCC(O)COc1cccc2c1CC(O)C(O)C2 (stereo not drawn) [NADOLOL]
ABSOLUTE BASOPHIL [1]: 0 CELLS/uL
ABSOLUTE EOSINOPHIL [1]: 43.33 CELLS/uL
ABSOLUTE LYMPHOCYTE [1]: 11948.67 CELLS/uL
ABSOLUTE MONOCYTE [1]: 0 CELLS/uL
ABSOLUTE SEGMENTED NEUTROPHIL [1]: 1241.33 CELLS/uL
BASOPHIL [1]: 0%
EOSINOPHIL [1]: 0.33%
HEMATOCRIT [1]: 34.8%
HEMOGLOBIN [1]: 13.13 G/DL
LEUKOCYTE COUNT [1]: 13.23 x10E3/uL
LYMPHOCYTE [1]: 90.33%
MEAN CORPUSCULAR HEMOGLOBIN [1]: 24.5 pg
MEAN CORPUSCULAR HEMOGLOBIN CONCENTRATION [1]: 37.73 G/DL
MEAN CORPUSCULAR VOLUME [1]: 64.87 fL
MONOCYTE [1]: 0%
NEUTROPHIL [1]: 9.33%
NUCLEATED RED BLOOD CELLS [1]: 0 /100WBC
PLATELET COUNT [1]: 1238.33 x10E3/uL
ALANINE AMINOTRANSFERASE [1]: 44 u/L
ALBUMIN [1]: 4.17 G/DL
ALKALINE PHOSPHATASE [1]: 391.33 u/L
ASPARTATE AMINOTRANSFERASE [1]: 75.33 u/L
BLOOD UREA NITROGEN [1]: 17 mg/dL
CARBON DIOXIDE [1]: 24.67 mmol/L
CHLORIDE [1]: 104 MEQ/L
CHOLESTEROL [1]: 82.33 mg/dL
CREATINE PHOSPHOKINASE [1]: 224 u/L
CREATININE [1]: 0.22 mg/dL
GLUCOSE [1]: 176.33 mg/dL
LACTATE DEHYDROGENASE [1]: 97 u/L
LIPASE [1]: 8 u/L
PHOSPHORUS [1]: 14.9 mg/dL
POTASSIUM [1]: 6.65 MEQ/L
SODIUM [1]: 146.1 MEQ/L
TOTAL BILIRUBIN [1]: 0.23 mg/dL
TOTAL PROTEIN [1]: 6.1 G/DL
URIC ACID [1]: 2 mg/dL
ABSOLUTE BASOPHIL [2]: 0 CELLS/uL
ABSOLUTE EOSINOPHIL [2]: 50.33 CELLS/uL
ABSOLUTE LYMPHOCYTE [2]: 8337.33 CELLS/uL
ABSOLUTE MONOCYTE [2]: 0 CELLS/uL
ABSOLUTE SEGMENTED NEUTROPHIL [2]: 679 CELLS/uL
BASOPHIL [2]: 0%
EOSINOPHIL [2]: 0.67%
HEMATOCRIT [2]: 35.83%
HEMOGLOBIN [2]: 13.37 G/DL
LEUKOCYTE COUNT [2]: 9.07 x10E3/uL
LYMPHOCYTE [2]: 91.67%
MEAN CORPUSCULAR HEMOGLOBIN [2]: 24.27 pg
MEAN CORPUSCULAR HEMOGLOBIN CONCENTRATION [2]: 37.37 G/DL
MEAN CORPUSCULAR VOLUME [2]: 64.93 fL
MONOCYTE [2]: 0%
NEUTROPHIL [2]: 7.67%
NUCLEATED RED BLOOD CELLS [2]: 0 /100WBC
PLATELET COUNT [2]: 1254.33 x10E3/uL
ALANINE AMINOTRANSFERASE [2]: 46.33 u/L
ALBUMIN [2]: 4.17 G/DL
ALKALINE PHOSPHATASE [2]: 380.67 u/L
ASPARTATE AMINOTRANSFERASE [2]: 77.67 u/L
BLOOD UREA NITROGEN [2]: 14.67 mg/dL
CARBON DIOXIDE [2]: 29.67 mmol/L
CHLORIDE [2]: 101 MEQ/L
CHOLESTEROL [2]: 84.67 mg/dL
CREATINE PHOSPHOKINASE [2]: 179 u/L
CREATININE [2]: 0.19 mg/dL
GLUCOSE [2]: 140.33 mg/dL
LACTATE DEHYDROGENASE [2]: 101 u/L
LIPASE [2]: 8.67 u/L
PHOSPHORUS [2]: 10.8 mg/dL
POTASSIUM [2]: 6.14 MEQ/L
SODIUM [2]: 147.83 MEQ/L
TOTAL BILIRUBIN [2]: 0.27 mg/dL
TOTAL PROTEIN [2]: 5.93 G/DL
URIC ACID [2]: 0.8 mg/dL
ABSOLUTE BASOPHIL [3]: 0 CELLS/uL
ABSOLUTE EOSINOPHIL [3]: 179 CELLS/uL
ABSOLUTE LYMPHOCYTE [3]: 10744.33 CELLS/uL
ABSOLUTE MONOCYTE [3]: 0 CELLS/uL
ABSOLUTE SEGMENTED NEUTROPHIL [3]: 1443.33 CELLS/uL
BASOPHIL [3]: 0%
EOSINOPHIL [3]: 1.33%
HEMATOCRIT [3]: 32.37%
HEMOGLOBIN [3]: 12.3 G/DL
LEUKOCYTE COUNT [3]: 12.37 x10E3/uL
LYMPHOCYTE [3]: 87.67%
MEAN CORPUSCULAR HEMOGLOBIN [3]: 24.6 pg
MEAN CORPUSCULAR HEMOGLOBIN CONCENTRATION [3]: 38 G/DL
MEAN CORPUSCULAR VOLUME [3]: 64.77 fL
MONOCYTE [3]: 0%
NEUTROPHIL [3]: 11%
NUCLEATED RED BLOOD CELLS [3]: 0 /100WBC
PLATELET COUNT [3]: 1241.33 x10E3/uL
ALANINE AMINOTRANSFERASE [3]: 51.33 u/L
ALBUMIN [3]: 3.9 G/DL
ALKALINE PHOSPHATASE [3]: 378.33 u/L
ASPARTATE AMINOTRANSFERASE [3]: 79.33 u/L
BLOOD UREA NITROGEN [3]: 16 mg/dL
CARBON DIOXIDE [3]: 24.67 mmol/L
CHLORIDE [3]: 109.33 MEQ/L
CHOLESTEROL [3]: 85 mg/dL
CREATINE PHOSPHOKINASE [3]: 126 u/L
CREATININE [3]: 0.15 mg/dL
GLUCOSE [3]: 170 mg/dL
LACTATE DEHYDROGENASE [3]: 86.33 u/L
LIPASE [3]: 8 u/L
PHOSPHORUS [3]: 14.57 mg/dL
POTASSIUM [3]: 7.08 MEQ/L
SODIUM [3]: 148.37 MEQ/L
TOTAL BILIRUBIN [3]: 0.17 mg/dL
TOTAL PROTEIN [3]: 5.63 G/DL
URIC ACID [3]: 2.2 mg/dL
ABSOLUTE BASOPHIL [4]: 0 CELLS/uL
ABSOLUTE EOSINOPHIL [4]: 191.67 CELLS/uL
ABSOLUTE LYMPHOCYTE [4]: 13307.33 CELLS/uL
ABSOLUTE MONOCYTE [4]: 0 CELLS/uL
ABSOLUTE SEGMENTED NEUTROPHIL [4]: 867.67 CELLS/uL
BASOPHIL [4]: 0%
EOSINOPHIL [4]: 1.33%
HEMATOCRIT [4]: 33.3%
HEMOGLOBIN [4]: 12.53 G/DL
LEUKOCYTE COUNT [4]: 14.37 x10E3/uL
LYMPHOCYTE [4]: 92.67%
MEAN CORPUSCULAR HEMOGLOBIN [4]: 23.37 pg
MEAN CORPUSCULAR HEMOGLOBIN CONCENTRATION [4]: 37.67 G/DL
MEAN CORPUSCULAR VOLUME [4]: 62.2 fL
MONOCYTE [4]: 0%
NEUTROPHIL [4]: 6%
NUCLEATED RED BLOOD CELLS [4]: 0 /100WBC
PLATELET COUNT [4]: 1258.33 x10E3/uL
ALANINE AMINOTRANSFERASE [4]: 44.67 u/L
ALBUMIN [4]: 3.9 G/DL
ALKALINE PHOSPHATASE [4]: 343 u/L
ASPARTATE AMINOTRANSFERASE [4]: 80 u/L
BLOOD UREA NITROGEN [4]: 16.33 mg/dL
CARBON DIOXIDE [4]: 25.33 mmol/L
CHLORIDE [4]: 103.67 MEQ/L
CHOLESTEROL [4]: 74 mg/dL
CREATINE PHOSPHOKINASE [4]: 262 u/L
CREATININE [4]: 0.21 mg/dL
GLUCOSE [4]: 152.33 mg/dL
LACTATE DEHYDROGENASE [4]: 268.33 u/L
LIPASE [4]: 8 u/L
PHOSPHORUS [4]: 13 mg/dL
POTASSIUM [4]: 6.63 MEQ/L
SODIUM [4]: 146.2 MEQ/L
TOTAL BILIRUBIN [4]: 0.13 mg/dL
TOTAL PROTEIN [4]: 5.7 G/DL
URIC ACID [4]: 1.47 mg/dL
